#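 How tested: cells in 96-well plates exposed to compound for 48 hours at five concentrations. At the TGI there is no net growth.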
# What was measured:
# Test in all cases: growth of human tumour cells (NCI), 48 h
# OVCAR-3 ovarian = test system: OVCAR-3 ovarian
# MCF7 breast = test system: MCF7 breast
# RXF 393 renal = test system: RXF 393 renal
# HOP-92 NSCLC = test system: HOP-92 NSCLC
# OVCAR-8 ovarian = test system: OVCAR-8 ovarian
# SK-MEL-2 melanoma = test system: SK-MEL-2 melanoma
# NCI/ADR-RES ovarian = test system: NCI/ADR-RES ovarian
# HL-60(TB) leukemia = test system: HL-60(TB) leukemia
# ACHN renal = test system: ACHN renal
# HS 578T breast = test system: HS 578T breast
# DU-145 prostate = test system: DU-145 prostate
# HCT-116 colon = test system: HCT-116 colon
# NCI-H522 lung = test system: NCI-H522 lung
# MOLT-4 leukemia = test system: MOLT-4 leukemia
# SF-539 CNS = test system: SF-539 CNS
# SK-MEL-5 melanoma = test system: SK-MEL-5 melanoma
# T-47D breast = test system: T-47D breast
# UACC-62 melanoma = test system: UACC-62 melanoma
# MDA-N = test system: MDA-N
# U251 CNS = test system: U251 CNS
# OVCAR-4 ovarian = test system: OVCAR-4 ovarian
# SF-268 CNS = test system: SF-268 CNS
# NCI-H226 lung = test system: NCI-H226 lung
# BT-549 breast = test system: BT-549 breast
# UO-31 renal = test system: UO-31 renal
# SK-MEL-28 melanoma = test system: SK-MEL-28 melanoma
# SR leukemia = test system: SR leukemia
# HCC-2998 colon = test system: HCC-2998 colon
# HCT-15 colon = test system: HCT-15 colon
# TK-10 renal = test system: TK-10 renal
# MDA-MB-435 = test system: MDA-MB-435
# SK-OV-3 ovarian = test system: SK-OV-3 ovarian
# IGROV1 ovarian = test system: IGROV1 ovarian
# HT29 colon = test system: HT29 colon
# CAKI-1 renal = test system: CAKI-1 renal
# A498 renal = test system: A498 renal
# NCI-H460 lung = test system: NCI-H460 lung
# MALME-3M melanoma = test system: MALME-3M melanoma
# SN12C renal = test system: SN12C renal
# COLO 205 colon = test system: COLO 205 colon
# EKVX NSCLC = test system: EKVX NSCLC
# A549 NSCLC = test system: A549 NSCLC
# UACC-257 melanoma = test system: UACC-257 melanoma
# OVCAR-5 ovarian = test system: OVCAR-5 ovarian
# RPMI-8226 leukemia = test system: RPMI-8226 leukemia
# SF-295 CNS = test system: SF-295 CNS
# SNB-75 CNS = test system: SNB-75 CNS
# HOP-62 NSCLC = test system: HOP-62 NSCLC
# CCRF-CEM leukemia = test system: CCRF-CEM leukemia
# K-562 leukemia = test system: K-562 leukemia
# PC-3 prostate = test system: PC-3 prostate
# 786-0 renal = test system: 786-0 renal
# SNB-19 CNS = test system: SNB-19 CNS
# LOX IMVI melanoma = test system: LOX IMVI melanoma
# NCI-H23 lung = test system: NCI-H23 lung
# MDA-MB-231 breast = test system: MDA-MB-231 breast
# M14 melanoma = test system: M14 melanoma
# KM12 colon = test system: KM12 colon
structure (smiles),measurement,setting,value
COC(=O)[C@@]12OC[C@]34[C@H]([C@@H](O)[C@@H]1O)[C@@]1(C)CC(=O)C(OC(C)=O)=C(C)[C@@H]1C[C@H]3OC(=O)[C@H](OC(=O)C=C(C)C)[C@@H]24,TGI,OVCAR-3 ovarian,1.01 µM
same,TGI,MCF7 breast,2.99 µM
same,TGI,RXF 393 renal,3.41 µM
same,TGI,HOP-92 NSCLC,4.04 µM
same,TGI,OVCAR-8 ovarian,2.54 µM
same,TGI,SK-MEL-2 melanoma,2.79 µM
same,TGI,NCI/ADR-RES ovarian,57.4 µM
same,TGI,HL-60(TB) leukemia,1.65 µM
same,TGI,ACHN renal,10.8 µM
same,TGI,HS 578T breast,3.32 µM
same,TGI,DU-145 prostate,6.37 µM
same,TGI,HCT-116 colon,2 µM
same,TGI,NCI-H522 lung,1.49 µM
same,TGI,MOLT-4 leukemia,4.23 µM
same,TGI,SF-539 CNS,1.82 µM
same,TGI,SK-MEL-5 melanoma,1.33 µM
same,TGI,T-47D breast,5.93 µM
same,TGI,UACC-62 melanoma,3.16 µM
same,TGI,MDA-N,3.2 µM
same,TGI,U251 CNS,3.26 µM
same,TGI,OVCAR-4 ovarian,4.05 µM
same,TGI,SF-268 CNS,3.05 µM
same,TGI,NCI-H226 lung,3.94 µM
same,TGI,BT-549 breast,5.27 µM
same,TGI,UO-31 renal,14.5 µM
same,TGI,SK-MEL-28 melanoma,2.67 µM
same,TGI,SR leukemia,2.07 µM
same,TGI,HCC-2998 colon,0.716 µM
same,TGI,HCT-15 colon,7.46 µM
same,TGI,TK-10 renal,4.75 µM
same,TGI,MDA-MB-435,3.45 µM
same,TGI,SK-OV-3 ovarian,1.78 µM
same,TGI,IGROV1 ovarian,2.59 µM
same,TGI,HT29 colon,58.3 µM
same,TGI,CAKI-1 renal,10.8 µM
same,TGI,A498 renal,1.78 µM
same,TGI,NCI-H460 lung,1.38 µM
same,TGI,MALME-3M melanoma,1.2 µM
same,TGI,SN12C renal,4.52 µM
same,TGI,COLO 205 colon,2.79 µM
same,TGI,EKVX NSCLC,5.38 µM
same,TGI,A549 NSCLC,4.92 µM
same,TGI,UACC-257 melanoma,2.28 µM
same,TGI,OVCAR-5 ovarian,6.79 µM
same,TGI,RPMI-8226 leukemia,3.21 µM
same,TGI,SF-295 CNS,3 µM
same,TGI,SNB-75 CNS,4.45 µM
same,TGI,HOP-62 NSCLC,2.86 µM
same,TGI,CCRF-CEM leukemia,3.83 µM
same,TGI,K-562 leukemia,9.7 µM
same,TGI,PC-3 prostate,4.01 µM
same,TGI,786-0 renal,3.19 µM
same,TGI,SNB-19 CNS,77.8 µM
same,TGI,LOX IMVI melanoma,0.981 µM
same,TGI,NCI-H23 lung,2.2 µM
same,TGI,MDA-MB-231 breast,5.8 µM
same,TGI,M14 melanoma,2.63 µM
same,TGI,KM12 colon,4.18 µM

# From PubChem BioAssay (NCI)
